Article PMC7343746, “(2S, 4R)-4-[^18F]Fluoroglutamine for In vivo PET Imaging of Glioma Xenografts in Mice: an Evaluation of Multiple Pharmacokinetic Models” (Molecular Imaging and Biology, 2020)
Several values for one entry are separate records, joined by “and”; a condition that tells them apart may be missing. Equal entries are not always repeated.

How the values were obtained:
rat BT4C glioma cells [1] = experiment: 2-Compartment model, subcutaneous model; format: in vivo, Foxn1^nu/nu mouse
Experimental: (§1) Image analysis was performed using CARIMAS software published and freely distributed by the Turku PET Center (http://turkupetcentre.fi/carimas/). CT scans were used as rough anatomical reference while tumor regions of interest (ROI) were hand-drawn based upon observed spikes of radioactivity in the PET images at locations correlating with recorded tumor grafts. Control muscle ROIs were drawn on the side opposite to the tumor in the leg flank muscle (based on CT) while the blood ROI was drawn based upon heart anatomical location and observed PET image radioactivity spike during the initial 20 s of imaging in the left ventricle. Standardized uptake values (SUV) were calculated with respect to ROI volume, mean and max tumor radioactivity, total injected radioactivity dose (corrected for tail, cannula, and syringe residual radioactivity), and animal weight, and were additionally presented as tumor-to-background ratio (TBR, tumor-to-healthy brain region for intracranial gliomas and tumor-to-muscle for subcutaneous gliomas) as defined by recent glioma research literature standards. Mean and maximum TBR values were reported as ROI radioactivity per volume divided by mean background radioactivity per volume. The blood radioactivity SUV and gender-specific metabolite-corrected blood radioactivity SUV were then applied to multiple pharmacokinetic models to characterize the flux of the tracer (further described in the “Modeling” section).
(§2) Using the heart’s left ventricle ROI from the PET data as an uncorrected radioactivity level input and the bioavailable parent-tracer fraction (results: Eqs. 3 and 4 applied to the uncorrected input) as the corrected input, multiple models were investigated to characterize the tissue uptake dynamics. Two-compartment modeling and Logan, Patlak, and Yokoi plots were used to separately model the pharmacokinetics for the gliomas (both subcutaneous and orthotopic loci) and their respective control tissues (healthy muscle and healthy brain, respectively). Where indicated, means plus/minus standard deviations are reported. Difference in parameters for uncorrected versus correct and target tissue versus their respective control regions were tested with students’ paired t tests with P values lower than 0.05 being considered significant.

rat BT4C glioma cells [2] = experiment: Yokoi plot, subcutaneous model; format: in vivo, Foxn1^nu/nu mouse; conditions: for Yokoi K1 (AB) plasma to tissue transport rate / Yokoi K1/k2 (AB) binding potential / Yokoi k2 (AB) tissue to plasma transport rate: AB input; for Yokoi K1 (PC) plasma to tissue transport rate / Yokoi K1/k2 (PC) binding potential / Yokoi k2 (PC) tissue to plasma transport rate: PC input
Experimental: as §1, §2

[3] = system: patient-derived BT3 glioma cells; experiment: In vivo PET imaging of orthotopic glioma xenografts; design: species or system BALB/cOlaHsd-Foxn1^nu mouse; conditions: for PET TBRmean: orthotopic glioma
Excerpt: The intracranial glioma model was made by injecting female BALB/cOlaHsd-Foxn1^nu (athymic nude, Institute of Animal Genetics, Edinburgh, UK) mice with patient-derived BT3 glioma cells labeled with luciferase into the frontal right hemisphere of the brain at 9 weeks old. Tumors were monitored for growth via in vivo bioluminescence detection and subjects PET imaged after 12 days.
One to two mice were imaged at a time while under 2 % isoflurane anesthesia with an Inveon multimodality small animal PET/CT scanner (Siemens Medical Solutions, Munich, Germany) commencing with an attenuation CT scan to correct the PET scan data. Ten to twelve megabequerels of the tracer was injected into the tail vein, and the subject(s) were imaged over a 60-min period in list mode dividing framing into 6 × 10 s, 4 × 60 s, 5 × 300 s, 3 × 600 s. Obtained sinograms were reconstructed using the ordered-subset expectation maximization 2-dimensional algorithm to obtain the final PET images and back-corrected for radionuclide decay.
Image analysis was performed using CARIMAS software published and freely distributed by the Turku PET Center (http://turkupetcentre.fi/carimas/). CT scans were used as rough anatomical reference while tumor regions of interest (ROI) were hand-drawn based upon observed spikes of radioactivity in the PET images at locations correlating with recorded tumor grafts. Control muscle ROIs were drawn on the side opposite to the tumor in the leg flank muscle (based on CT) while the blood ROI was drawn based upon heart anatomical location and observed PET image radioactivity spike during the initial 20 s of imaging in the left ventricle. […] Mean and maximum TBR values were reported as ROI radioactivity per volume divided by mean background radioactivity per volume. The blood radioactivity SUV and gender-specific metabolite-corrected blood radioactivity SUV were then applied to multiple pharmacokinetic models to characterize the flux of the tracer (further described in the “Modeling” section).

[4] = Bone (femoral condyle) average (n = 6), arterial blood input
[5] = Bone (femoral condyle) average (n=6), plasma-corrected input
[6] = Flank muscle average (n = 6), arterial blood input
[7] = Flank muscle average (n=6), plasma-corrected input
[8] = Flank tumor average (n = 6), arterial blood input
[9] = Flank tumor average (n=6), plasma-corrected input
[10] = Neck tumor average (n = 6), arterial blood input
[11] = Neck tumor average (n=6), plasma-corrected input
[12] = Bone (femoral condyle) average (n = 6)

- 2-Compartment K1 (rat BT4C glioma cells [1]; [4]): 0.309 ± 0.179 mL min-1 mL-1
- 2-Compartment K1/k2 (rat BT4C glioma cells [1]; [4]): 0.745 ± 0.194 mL mL-1
- 2-Compartment Vb (rat BT4C glioma cells [1]; [4]): 5.45 ± 2.53%
- 2-Compartment k3 (rat BT4C glioma cells [1]; [4]): 0.075 ± 0.034 min⁻¹
- 2-Compartment k3*K1/k2 (rat BT4C glioma cells [1]; [4]): 0.052 ± 0.017
- 2-Compartment k3/(k2+k3) (rat BT4C glioma cells [1]; [4]): 0.171 ± 0.083
- 2-Compartment K1 (rat BT4C glioma cells [1]; [5]): 0.402 ± 0.206 mL min-1 mL-1
- 2-Compartment K1/k2 (rat BT4C glioma cells [1]; [5]): 0.649 ± 0.191 mL mL-1
- 2-Compartment Vb (rat BT4C glioma cells [1]; [5]): 3.21 ± 3.57%
- 2-Compartment k3 (rat BT4C glioma cells [1]; [5]): 0.148 ± 0.063 min⁻¹
- 2-Compartment k3*K1/k2 (rat BT4C glioma cells [1]; [5]): 0.086 ± 0.024
- 2-Compartment k3/(k2+k3) (rat BT4C glioma cells [1]; [5]): 0.198 ± 0.079
- 2-Compartment K1 (rat BT4C glioma cells [1]; [6]): 0.079 ± 0.027 mL min-1 mL-1
- 2-Compartment K1/k2 (rat BT4C glioma cells [1]; [6]): 0.564 ± 0.130 mL mL-1
- 2-Compartment Vb (rat BT4C glioma cells [1]; [6]): 2.33 ± 1.07%
- 2-Compartment k3 (rat BT4C glioma cells [1]; [6]): 0.009 ± 0.005 min⁻¹
- 2-Compartment k3*K1/k2 (rat BT4C glioma cells [1]; [6]): 0.005 ± 0.002
- 2-Compartment k3/(k2+k3) (rat BT4C glioma cells [1]; [6]): 0.061 ± 0.038
- 2-Compartment K1 (rat BT4C glioma cells [1]; [7]): 0.081 ± 0.027 mL min-1 mL-1
- 2-Compartment K1/k2 (rat BT4C glioma cells [1]; [7]): 0.797 ± 0.163 mL mL-1
- 2-Compartment Vb (rat BT4C glioma cells [1]; [7]): 2.8 ± 1.12%
- 2-Compartment k3 (rat BT4C glioma cells [1]; [7]): 0.015 ± 0.005 min⁻¹
- 2-Compartment k3*K1/k2 (rat BT4C glioma cells [1]; [7]): 0.012 ± 0.003
- 2-Compartment k3/(k2+k3) (rat BT4C glioma cells [1]; [7]): 0.136 ± 0.055
- 2-Compartment K1 (rat BT4C glioma cells [1]; [8]): 0.147 ± 0.028 mL min-1 mL-1
- 2-Compartment K1/k2 (rat BT4C glioma cells [1]; [8]): 0.973 ± 0.187 mL mL-1
- 2-Compartment Vb (rat BT4C glioma cells [1]; [8]): 5.59 ± 2.78%
- 2-Compartment k3 (rat BT4C glioma cells [1]; [8]): 0.005 ± 0.004 min⁻¹
- 2-Compartment k3*K1/k2 (rat BT4C glioma cells [1]; [8]): 0.004 ± 0.003
- 2-Compartment k3/(k2+k3) (rat BT4C glioma cells [1]; [8]): 0.028 ± 0.021
- 2-Compartment K1 (rat BT4C glioma cells [1]; [9]): 0.148 ± 0.027 mL min-1 mL-1
- 2-Compartment K1/k2 (rat BT4C glioma cells [1]; [9]): 1.369 ± 0.273 mL mL-1
- 2-Compartment Vb (rat BT4C glioma cells [1]; [9]): 6.64 ± 3.1%
- 2-Compartment k3 (rat BT4C glioma cells [1]; [9]): 0.010 ± 0.004 min⁻¹
- 2-Compartment k3*K1/k2 (rat BT4C glioma cells [1]; [9]): 0.013 ± 0.003
- 2-Compartment k3/(k2+k3) (rat BT4C glioma cells [1]; [9]): 0.086 ± 0.028
- 2-Compartment K1 (rat BT4C glioma cells [1]; [10]): 0.202 ± 0.079 mL min-1 mL-1
- 2-Compartment K1/k2 (rat BT4C glioma cells [1]; [10]): 1.129 ± 0.141 mL mL-1
- 2-Compartment Vb (rat BT4C glioma cells [1]; [10]): 8.28 ± 5.95%
- 2-Compartment k3 (rat BT4C glioma cells [1]; [10]): 0.002 ± 0.002 min⁻¹
- 2-Compartment k3*K1/k2 (rat BT4C glioma cells [1]; [10]): 0.002 ± 0.002
- 2-Compartment k3/(k2+k3) (rat BT4C glioma cells [1]; [10]): 0.015 ± 0.013
- 2-Compartment K1 (rat BT4C glioma cells [1]; [11]): 0.202 ± 0.072 mL min-1 mL-1
- 2-Compartment K1/k2 (rat BT4C glioma cells [1]; [11]): 1.567 ± 0.209 mL mL-1
- 2-Compartment Vb (rat BT4C glioma cells [1]; [11]): 9.79 ± 6.85%
- 2-Compartment k3 (rat BT4C glioma cells [1]; [11]): 0.008 ± 0.002 min⁻¹
- 2-Compartment k3*K1/k2 (rat BT4C glioma cells [1]; [11]): 0.013 ± 0.002
- 2-Compartment k3/(k2+k3) (rat BT4C glioma cells [1]; [11]): 0.065 ± 0.026
- Yokoi K1 (AB) plasma to tissue transport rate (rat BT4C glioma cells [2]; [12]): 0.075 ± 0.013 mL min-1 mL-1
- Yokoi K1/k2 (AB) binding potential (rat BT4C glioma cells [2]; [12]): 5.48 ± 2.21 mL mL-1
- Yokoi k2 (AB) tissue to plasma transport rate (rat BT4C glioma cells [2]; [12]): 0.017 ± 0.012 min⁻¹
- Yokoi K1 (PC) plasma to tissue transport rate (rat BT4C glioma cells [2]; [12]): 0.086 ± 0.015 mL min-1 mL-1
- Yokoi K1/k2 (PC) binding potential (rat BT4C glioma cells [2]; [12]): 37.68 ± 39.62 mL mL-1
- Yokoi k2 (PC) tissue to plasma transport rate (rat BT4C glioma cells [2]; [12]): 0.005 ± 0.006 min⁻¹
- Yokoi K1 (AB) plasma to tissue transport rate (rat BT4C glioma cells [2]; Flank muscle average (n = 6)): 0.057 ± 0.023 mL min-1 mL-1
- Yokoi K1/k2 (AB) binding potential (rat BT4C glioma cells [2]; Flank muscle average (n = 6)): 0.76 ± 0.13 mL mL-1
- Yokoi k2 (AB) tissue to plasma transport rate (rat BT4C glioma cells [2]; Flank muscle average (n = 6)): 0.074 ± 0.028 min⁻¹
- Yokoi K1 (PC) plasma to tissue transport rate (rat BT4C glioma cells [2]; Flank muscle average (n = 6)): 0.054 ± 0.017 mL min-1 mL-1
- Yokoi K1/k2 (PC) binding potential (rat BT4C glioma cells [2]; Flank muscle average (n = 6)): 1.37 ± 0.23 mL mL-1
- Yokoi k2 (PC) tissue to plasma transport rate (rat BT4C glioma cells [2]; Flank muscle average (n = 6)): 0.039 ± 0.013 min⁻¹
- Yokoi K1 (AB) plasma to tissue transport rate (rat BT4C glioma cells [2]; Flank tumor average (n = 6)): 0.121 ± 0.039 mL min-1 mL-1
- Yokoi K1/k2 (AB) binding potential (rat BT4C glioma cells [2]; Flank tumor average (n = 6)): 1.13 ± 0.09 mL mL-1
- Yokoi k2 (AB) tissue to plasma transport rate (rat BT4C glioma cells [2]; Flank tumor average (n = 6)): 0.106 ± 0.029 min⁻¹
- Yokoi K1 (PC) plasma to tissue transport rate (rat BT4C glioma cells [2]; Flank tumor average (n = 6)): 0.105 ± 0.027 mL min-1 mL-1
- Yokoi K1/k2 (PC) binding potential (rat BT4C glioma cells [2]; Flank tumor average (n = 6)): 1.95 ± 0.15 mL mL-1
- Yokoi k2 (PC) tissue to plasma transport rate (rat BT4C glioma cells [2]; Flank tumor average (n = 6)): 0.054 ± 0.011 min⁻¹
- Yokoi K1 (AB) plasma to tissue transport rate (rat BT4C glioma cells [2]; Neck tumor average (n = 6)): 0.179 ± 0.076 mL min-1 mL-1
- Yokoi K1/k2 (AB) binding potential (rat BT4C glioma cells [2]; Neck tumor average (n = 6)): 1.21 ± 0.08 mL mL-1
- Yokoi k2 (AB) tissue to plasma transport rate (rat BT4C glioma cells [2]; Neck tumor average (n = 6)): 0.146 ± 0.056 min⁻¹
- Yokoi K1 (PC) plasma to tissue transport rate (rat BT4C glioma cells [2]; Neck tumor average (n = 6)): 0.135 ± 0.039 mL min-1 mL-1
- Yokoi K1/k2 (PC) binding potential (rat BT4C glioma cells [2]; Neck tumor average (n = 6)): 2.08 ± 0.13 mL mL-1
- Yokoi k2 (PC) tissue to plasma transport rate (rat BT4C glioma cells [2]; Neck tumor average (n = 6)): 0.065 ± 0.016 min⁻¹
- PET TBRmean ([3]; Subject A): 4.8
- PET TBRmean ([3]; Subject B): 3.6
- PET image tumor-to-healthy brain region ratio ([3]; orthotopic human glioma xenografts): 3.6 and 4.8
Compound: NC(=O)[C@H]([18F])C[C@H](N)C(=O)O [[^18F]FGln, (2S, 4R)-4-[^18F]fluoroglutamine]
